Data published in patent US8512961B2, “Methods of detecting and treatment of cancers using Scutellaria barbata extract” (Bionovo, Inc., priority 2007, dated 2013).

Columns and labels:
DNA = DNA damage, comet formation; type: cell-based; settings: for effect on comet formation induced by BZL101: cells pretreated prior to the addition of BZL101
Description: There is a different fold increase of ROS levels in different cells treated with BZL101 compared to control untreated cells. It is of particular interest that the increase in ROS correlates well with the degree of DNA damage induced in these cells.
To further implicate ROS in the induction of DNA damage, comet formation in cells pretreated with the antioxidants NAC and pyruvate prior to the addition of BZL101 were examined.

ROS = ROS generation, staining with ROS-sensitive probe CM-H2DCFDA; type: cell-based; settings: incubation of cells prior to addition of BZL101; SKBr3 cells
SKBr3 cells = test: 8-oxoguanine, flow cytometry with avidin fluorescein; type: cell-based, human; settings: cells pretreated prior to addition of BZL101
Protocol: To verify that BZL101 leads to oxidative DNA damage, it was determined whether the DNA of BZL101-treated cells contains 8-oxoguanine, the most ubiquitous marker of DNA oxidation. […] (See FIG. 9). […] (See FIG. 10). Analysis of the 8-oxoguanidine and apurininc/apyrimidinic (AP) bases in DNA. The Calbiochem kit was used for staining of the fixed and permeabilized cells with avidin fluorescein. Quantification of apurinic/[…] nucleotides in genomic DNA was performed using the DNA damage quantification kit from BioVision Research Products.

SMILES | effect on comet formation induced by BZL101 (DNA) | DNA damage repair in cancer cells (DNA; in the presence of the antioxidant, BZL101-treated cancer cells) | effect on BZL101-induced ROS generation (ROS) | effect on BZL101-induced increase in avidin binding (8-oxoguanine) (SKBr3 cells)
CC1(C)N([O])C(c2ccccc2)=[N+]([O-])C1(C)C [PTIO] | no effect | – | – | –
CC(=O)N[C@@H](CS)C(=O)O [NAC, N-acetyl-cysteine] | significantly reduced the number of cells forming comets | greatly accelerated | prevented most of the increase in ROS generation | completely abolished
